Source: ChEMBL document CHEMBL1201862, “PubChem BioAssay data set” (2004)
“And” between values parts separate entries of the source, which are not always exact repeats. Equal values may be shown once.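 Cells were grown in 96-well plates and exposed to each compound for 48 hours at five concentrations; endpoints were interpolated linearly between bracketing concentrations, or set to the highest concentration if not reached. GI50 is the concentration that inhibits growth by half.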 The source made the active and inactive calls. Cut-off read from the data, not from the text of the source: active = GI50 up to about 1.1 µM and inactive = higher.

How the values were obtained:
Experiment in all cases: NCI anticancer screen, dose series, 48 h
A549 = tested on: A549
BT-549 = tested on: BT-549
CAKI-1 = tested on: CAKI-1
COLO 205 = tested on: COLO 205
EKVX = tested on: EKVX
HOP-62 = tested on: HOP-62
KM12 = tested on: KM12
MCF7 = tested on: MCF7
MDA-MB-231 = tested on: MDA-MB-231
MDA-MB-435 = tested on: MDA-MB-435
Malme-3M = tested on: Malme-3M
NCI-H23 = tested on: NCI-H23
NCI-H522 = tested on: NCI-H522
OVCAR-3 = tested on: OVCAR-3
PC-3 = tested on: PC-3
RPMI-8226 = tested on: RPMI-8226
SK-MEL-5 = tested on: SK-MEL-5
SK-OV-3 = tested on: SK-OV-3
UACC-62 = tested on: UACC-62
SNB-75 = tested on: SNB-75

Row | SMILES | GI50 (A549) | GI50 (BT-549) | GI50 (CAKI-1) | GI50 (COLO 205) | GI50 (EKVX) | GI50 (HOP-62) | GI50 (KM12) | GI50 (MCF7) | GI50 (MDA-MB-231) | GI50 (MDA-MB-435) | GI50 (Malme-3M) | GI50 (NCI-H23) | GI50 (NCI-H522) | GI50 (OVCAR-3) | GI50 (PC-3) | GI50 (RPMI-8226) | GI50 (SK-MEL-5) | GI50 (SK-OV-3) | GI50 (UACC-62) | GI50 (SNB-75)
1 | CCCC(c1cc(C(C)(C)C)c(O)cc1C)c1cc(C(C)(C)C)c(O)cc1C | 2.99 µM (inactive) | 9.79 µM (inactive) | 4.3 µM (inactive) | 2.33 µM (inactive) | 2.88 µM (inactive) | 3.05 µM (inactive) | 3.32 µM (inactive) | 2.06 µM (inactive) | 3.56 µM (inactive) | 2.59 µM (inactive) | 3.05 µM (inactive) | 2.65 µM (inactive) | 2.33 µM (inactive) | 1.81 µM (inactive) | 3.29 µM (inactive) | 2.24 µM (inactive) | 1.77 µM (inactive) | 3.65 µM (inactive) | 2.09 µM (inactive) | –
2 | CCC1C(C#N)=C(N)OC2=C1C(=O)CC(C)(C)C2 (centres undefined) | > 100 µM (inactive) | > 100 µM (inactive) | > 100 µM (inactive) | > 100 µM (inactive) | > 100 µM (inactive) | > 100 µM (inactive) | > 100 µM (inactive) | > 100 µM (inactive) | > 100 µM (inactive) | > 100 µM (inactive) | > 100 µM (inactive) | > 100 µM (inactive) | > 100 µM (inactive) | > 100 µM (inactive) | > 100 µM (inactive) | > 100 µM (inactive) | > 100 µM (inactive) | > 100 µM (inactive) | > 100 µM (inactive) | –
3 | O=C1CCC(=O)N1CNc1ccc2c(c1)Sc1ccccc1O2 | 33 µM (inactive) | 26.6 µM (inactive) | 32.7 µM (inactive) | 18 µM (inactive) | 22 µM (inactive) | 43.7 µM (inactive) | 36.7 µM (inactive) | 43.1 µM (inactive) | 41.9 µM (inactive) | 31.9 µM (inactive) | 58.6 µM (inactive) | 38.5 µM (inactive) | 23.8 µM (inactive) | 26.5 µM (inactive) | 32 µM (inactive) | 33.9 µM (inactive) | 26.4 µM (inactive) | – | 48.9 µM (inactive) | –
4 | O=C(Nc1ccc(Cl)c(Cl)c1)C(=O)C(C1OC(=O)c2ccccc21)[N+](=O)[O-] (centres undefined) | > 100 µM (inactive) | > 100 µM (inactive) | > 100 µM (inactive) | > 100 µM (inactive) | > 100 µM (inactive) | > 100 µM (inactive) | > 100 µM (inactive) | > 100 µM (inactive) | > 100 µM (inactive) | > 100 µM (inactive) | > 100 µM (inactive) | > 100 µM (inactive) | > 100 µM (inactive) | > 100 µM (inactive) | > 100 µM (inactive) | – | > 100 µM (inactive) | > 100 µM (inactive) | > 100 µM (inactive) | > 100 µM (inactive)
5 | Cc1cc(Cl)cc2c1NC(=O)/C2=N\Nc1ccccc1[N+](=O)[O-] | > 100 µM (inactive) | > 100 µM (inactive) | > 100 µM (inactive) | > 100 µM (inactive) | > 100 µM (inactive) | 50.5 µM (inactive) | > 100 µM (inactive) | > 100 µM (inactive) | 66.8 µM (inactive) | > 100 µM (inactive) | – | 40.5 µM (inactive) | > 100 µM (inactive) | > 100 µM (inactive) | 38.8 µM (inactive) | > 100 µM (inactive) | > 100 µM (inactive) | > 100 µM (inactive) | > 100 µM (inactive) | > 100 µM (inactive)
6 | COc1cc(Cn2c3c(c4cc(O)ccc42)Cc2ccccc2C3=O)cc(OC)c1 | 74 µM (inactive) | > 100 µM (inactive) | 32.7 µM (inactive) | 28.9 µM (inactive) | – | 60.7 µM (inactive) | 39.2 µM (inactive) | 20.7 µM (inactive) | 31 µM (inactive) | 11.9 µM (inactive) | 42.1 µM (inactive) | > 100 µM (inactive) | – | > 100 µM (inactive) | 56.5 µM (inactive) | 5.62 µM (inactive) | 35.7 µM (inactive) | > 100 µM (inactive) | 38.2 µM (inactive) | 15.5 µM (inactive)
7 | OC(c1cc2ccccc2[nH]1)C1(c2cccnc2)SCCCS1 (centres undefined) | 47.6 µM (inactive) | 57.9 µM (inactive) | > 100 µM (inactive) | 61.4 µM (inactive) | 21.2 µM (inactive) | 50.2 µM (inactive) | 26.7 µM (inactive) | 39.5 µM (inactive) | 23.1 µM (inactive) | 33.6 µM (inactive) | 87.3 µM (inactive) | 35.6 µM (inactive) | 38.5 µM (inactive) | – | 38.5 µM (inactive) | – | 43.6 µM (inactive) | > 100 µM (inactive) | 50.9 µM (inactive) | 73.6 µM (inactive)
8 | O=C1NC(=O)C(C(c2ccc(Cl)cc2)C2C(=O)NC(=O)NC2=O)C(=O)N1.c1ccncc1 | > 100 µM (inactive) | > 100 µM (inactive) | > 100 µM (inactive) | > 100 µM (inactive) | > 100 µM (inactive) | > 100 µM (inactive) | > 100 µM (inactive) | > 100 µM (inactive) | > 100 µM (inactive) | > 100 µM (inactive) | > 100 µM (inactive) | > 100 µM (inactive) | > 100 µM (inactive) | > 100 µM (inactive) | > 100 µM (inactive) | > 100 µM (inactive) | > 100 µM (inactive) | – | > 100 µM (inactive) | –
9 | Cc1ccc(S(=O)(=O)OCCC2CN(C(=O)OCc3ccccc3)C(C)(C)O2)cc1 (centres undefined) | 9.59 µM (inactive) | 1.89 µM (inactive) | 60.1 µM (inactive) | 7.38 µM (inactive) | 18.3 µM (inactive) | – | 2.75 µM (inactive) | 7.83 µM (inactive) | > 100 µM (inactive) | 3.61 µM (inactive) | 8.2 µM (inactive) | 2.96 µM (inactive) | 2.7 µM (inactive) | 39.6 µM (inactive) | 4.79 µM (inactive) | 3.92 µM (inactive) | 2.72 µM (inactive) | > 100 µM (inactive) | 10.2 µM (inactive) | –
10 | COC(=O)[C@]12CCC(=O)N1[C@H](C(=O)O)Cc1c2[nH]c2ccccc12 | > 100 µM (inactive) | > 100 µM (inactive) | > 100 µM (inactive) | > 100 µM (inactive) | > 100 µM (inactive) | > 100 µM (inactive) | > 100 µM (inactive) | > 100 µM (inactive) | > 100 µM (inactive) | > 100 µM (inactive) | > 100 µM (inactive) | > 100 µM (inactive) | > 100 µM (inactive) | > 100 µM (inactive) | > 100 µM (inactive) | – | > 100 µM (inactive) | > 100 µM (inactive) | > 100 µM (inactive) | > 100 µM (inactive)
11 | C#C[C@]1(O)CC[C@H]2[C@@H]3CCC4=C/C(=N/OC(=O)c5cccc6cc7ccccc7nc56)CC[C@@H]4[C@H]3CC[C@@]21CC | > 100 µM (inactive) | > 100 µM (inactive) | > 100 µM (inactive) | 49.7 µM (inactive) | – | > 100 µM (inactive) | > 100 µM (inactive) | 76 µM (inactive) | > 100 µM (inactive) | > 100 µM (inactive) | – | > 100 µM (inactive) | – | > 100 µM (inactive) | > 100 µM (inactive) | > 100 µM (inactive) | > 100 µM (inactive) | > 100 µM (inactive) | > 100 µM (inactive) | > 100 µM (inactive)
12 | CCNC(=S)N/N=C(\C)c1cccc(C)n1 | 20.6 µM (inactive) | 31.5 µM (inactive) | – | 0.748 µM (active) | 2.04 µM (inactive) | 29.7 µM (inactive) | 20.3 µM (inactive) | 3.32 µM (inactive) | 7.36 µM (inactive) | 20.5 µM (inactive) | 2.39 µM (inactive) | 23 µM (inactive) | 0.897 µM (active) | 0.299 µM (active) | 5.87 µM (inactive) | – | 4.52 µM (inactive) | 13.1 µM (inactive) | 15.4 µM (inactive) | 75.2 µM (inactive)
13 | O=c1[nH]nc(Cc2ccccc2)n1/N=C/c1ccc(/C=N/n2c(Cc3ccccc3)n[nH]c2=O)cc1 | > 100 µM (inactive) | > 100 µM (inactive) | > 100 µM (inactive) | > 100 µM (inactive) | > 100 µM (inactive) | 57.5 µM (inactive) | > 100 µM (inactive) | > 100 µM (inactive) | 38.8 µM (inactive) | > 100 µM (inactive) | > 100 µM (inactive) | > 100 µM (inactive) | > 100 µM (inactive) | > 100 µM (inactive) | > 100 µM (inactive) | > 100 µM (inactive) | > 100 µM (inactive) | – | > 100 µM (inactive) | –
14 | C=C(C)CCC(O)[C@](C)(O)[C@H]1[C@H](O)C[C@@]2(C)[C@@H]3CCc4c(cc(OC5OC(CO)C(O)C(O)C5O)c(O)c4C)C3(C)C(=O)C[C@]12C (some centres undefined) | > 100 µM (inactive) | > 100 µM (inactive) | > 100 µM (inactive) | > 100 µM (inactive) | > 100 µM (inactive) | > 100 µM (inactive) | > 100 µM (inactive) | > 100 µM (inactive) | > 100 µM (inactive) | > 100 µM (inactive) | > 100 µM (inactive) | > 100 µM (inactive) | > 100 µM (inactive) | > 100 µM (inactive) | > 100 µM (inactive) | – | > 10 µM (inactive) | > 100 µM (inactive) | > 100 µM (inactive) | > 100 µM (inactive)
15 | c1ccc2[nH]c(-c3cscn3)nc2c1 [THIABENDAZOLE] | > 100 µM (inactive) | > 100 µM (inactive) | – | > 100 µM (inactive) | > 100 µM (inactive) | – | > 100 µM (inactive) | > 100 µM (inactive) | > 100 µM (inactive) | 74.3 µM (inactive) and 44.4 µM (inactive) | > 100 µM (inactive) | > 100 µM (inactive) | > 100 µM (inactive) | > 100 µM (inactive) | > 100 µM (inactive) | – | > 100 µM (inactive) | > 100 µM (inactive) | > 100 µM (inactive) | > 100 µM (inactive)
